Test results: US20130136721A1, “Compositions and Methods of Generating a Differentiated Mesodermal Cell” (THE JOHNS HOPKINS UNIVERSITY, priority 2010, published 2013)
“Also recorded” adds a separate entry of the source.

Tests used:
Assay type in all cases: cell-based, human
H9 hESC = assay: Beating hEB assay (contracting hEB after forced aggregation cardiac differentiation); conditions: for effect on cardiac differentiation, phase 2 medium: supplement in d0-d2 medium; for effect on cardiac differentiation, phase 2 medium / effect on cardiac differentiation, phase 3 medium: contracting hEB d9; for effect on cardiac differentiation, phase 3 medium: supplement in d2-d4 medium; for effect on cardiac differentiation, phase 4 medium: supplement in d4 onwards medium
Excerpt: The cardiac differentiation protocol was divided into four distinct phases for optimization (FIG. 3A): phase 1: uniform undifferentiated growth; phase 2: hEB formation/mesoderm induction; phase 3: hEB cardiac specification; phase 4: contracting cardiomyocyte development. […] After an initial round of optimizations had been completed, optimizations was repeated a second time to account for the new media formulations and then a third time to optimize the final media formulation. In some cases fourth and fifth repeats were performed to improve the statistical power of the results. For each variable tested, the bell-curve distribution of dose-response was determined. Results shown are averages of the 2nd-5th replicates (FIG. 2B).
For forced aggregation hEB differentiations, confluent hESC or hiPSC which had been grown on a commercially available extracellular matrix, Geltrex (Invitrogen) as monolayers for 3 to 13 passages were passaged with TrypLE Select and seeded at 2.5×10^6 per T25 flask. After 24 hours growth, cells were washed with PBS and treated with room temperature TrypLE Select for 1 minute at 37° C. Cells were seeded at 5000 cells per well in 96-well V-bottom uncoated plates (249952, NUNC) in 100 μL per well RPMI+PVA medium consisting of RPMI Media 1640 (with L-Glutamine), 4 mg mL-1 polyvinyl alcohol (P8136, Sigma, dissolved in RPMI at 4° C. for at least 72 hours, mixing by inversion every day), 1% chemically defined lipid concentrate, 10 μg mL-1 recombinant human insulin (Sigma), 400 μM 1-thioglycerol (Sigma), 25 ng mL-1 BMP4 and 5 ng mL-1 FGF2 (both from R&D systems), 1 μM Y-27632 (Calbiochem). This medium is not stable and was made fresh for each experiment. After 48 hours (on day 2) medium was aspirated with a Costar 8-channel aspirator (Corning) and replaced with RPMI+FBS medium consisting RPMI Media 1640, 20% characterized FBS (Hyclone), 400 μM 1-thioglycerol. On day 4 media was changed to RPMI+PVA without growth factors and hEB were transferred to 96-well U-bottom tissue culture treated plates (650180, Greiner Bio-One). Media was changed on d7 and every 3 days afterwards. hEB were visually assessed for contraction on d9 using a Nikon Eclipse Ti inverted tissue culture microscope with a TOKAI-HIT heated stage (Nikon). Images were captured using NIS-Elements (Nikon). […] For traditional cardiac differentiations using FBS, undirected differentiation was performed as previously described (Kehat et al. J Clin Invest 108, 407-414 (2001)): briefly, confluent H9 hESC grown as colonies on MEF were treated with collagenase IV for 5 minutes at 37° C. then washed from the plate using a 5 mL pipette. Cell clusters were then transferred to Petri dishes in 20% FBS medium for 7 days. hEB were then transferred to gelatin coated tissue culture plates. Media was changed every 3 days.
One single replicate consists of one 96-well plate. Repeat replicates were performed 1-4 months apart using a different vial of cells. Each experiment was repeated at least 3 times representing at least 288 hEB. Total number of hEB assessed in this work exceeds 80,000. Wells in which no hEB was detected due to pipeting error were excluded and accounted for approximately 1-5% of wells. P-values were established using unpaired two-tailed Student's t-test.

H9 hEB = assay: Voltage optical micromapping of contracting hEB (action potential duration); conditions: 20 μM isoproterenol, 4 hEB, mean±s.d., p≈0.01 paired t-test
Method: Cardiac markers and structural protein expression was assessed using immunofluorescence staining. […] To assess quality of hPSC-derived cardiomyocytes that were generated using this method and suitability for future applications such as cardiotoxicity testing, the electrophysiological properties were assessed via optical mapping. hEB were either mechanically dissected and plated onto fibronectin-coated glass coverslips for micromapping, or approximately 200 hEB were dissociated into single cells and plated in a 10 mm diameter area as a confluent monolayer for macromapping. hEB and monolayers were then stained with either voltage- or calcium-sensitive dye and optically mapped to visualize spontaneous activity and response to electrical field stimulation (FIG. 12A). […] To assess cardioactive drug responsiveness, 20 μM isoproterenol or 100 μM pinacidil was added to cardiomyocyte monolayers or hEB to test for beta-adrenergic stimulation response and the presence of functional KATP channels, respectively. […] Contracting hEB derived from the hiPSC line 6.2 were tested in the same manner and yielded similar results. […]

[1] = tested on: hESC-derived cardiomyocyte monolayer; assay: Voltage macromapping of cardiomyocyte monolayer (action potential duration); conditions: for effect on action potential: 20 μM isoproterenol or 100 μM pinacidil added to cardiomyocyte monolayers or hEB; for action potential duration: 0.67 Hz pacing, mean±s.d., 20 μM isoproterenol or 100 μM pinacidil, control 363±137 ms
Method: Cardiac markers and structural protein expression was assessed using immunofluorescence staining. […] To assess quality of hPSC-derived cardiomyocytes that were generated using this method and suitability for future applications such as cardiotoxicity testing, the electrophysiological properties were assessed via optical mapping. hEB were either mechanically dissected and plated onto fibronectin-coated glass coverslips for micromapping, or approximately 200 hEB were dissociated into single cells and plated in a 10 mm diameter area as a confluent monolayer for macromapping. hEB and monolayers were then stained with either voltage- or calcium-sensitive dye and optically mapped to visualize spontaneous activity and response to electrical field stimulation (FIG. 12A). […] To assess cardioactive drug responsiveness, 20 μM isoproterenol or 100 μM pinacidil was added to cardiomyocyte monolayers or hEB to test for beta-adrenergic stimulation response and the presence of functional KATP channels, respectively. […] Contracting hEB derived from the hiPSC line 6.2 were tested in the same manner and yielded similar results.
For optical micromapping (Weinberg et al., Methods Mol Biol 660, 215-237 (2010), contracting hEB were mechanically dissected, plated on fibronectin-coated glass coverslips and given at least 5 days to attach. hEB were then stained with either 10 μM Rhod-2-AM calcium dye for 20 minutes or 10 μM di-4-ANEPPS voltage dye for 5 minutes. After several rinses with Tyrode's solution (135 mM NaCl, 5.4 mM KCl, 1.8 mM CaCl2, 1 mM MgCl2, 0.33 mM NaH2PO4, 5 mM HEPES, and 5 mM glucose), hEB were incubated with 30 μM blebbistatin for 15 minutes to inhibit excitation-contraction coupling and subsequently prevent signal distortion due to motion artifact. The absence of hEB contraction was confirmed visually. hEB were then excited at 530 nm to visualize spontaneous activity and response to electrical field stimulation. Imaging of transmembrane potential (Vm) or intracellular calcium (Cai) was performed using an Andor iXon+860 electron multiplying charged coupled device (EMCCD) camera (128×128 pixels) at 490 Hz sampling rate. […] Macromapping of hESC-CM monolayers was performed using contact fluorescent imaging, in which maps of Vm were recorded by placing the monolayer directly on top of a bundle of 253 optical fibers 1 mm in diameter, arranged in a tightly packed, 17-mmdiameter hexagonal array. […] To analyze data, the individual recorded signals recorded were spatially filtered using a 5×5 box filter, temporally filtered using a 10 point median filter, baseline-corrected by subtraction of a fitted 3rd order polynomial, and range-normalized. […] Uniformity of APD was assessed by the coefficient of variation. […]

| Compound | effect on cardiac differentiation, phase 2 medium (H9 hESC) | effect on cardiac differentiation, phase 3 medium (H9 hESC) | other results |
| --- | --- | --- | --- |
| OCC(O)CS (stereo not drawn) [1-thioglycerol] | resulted in high efficiency cardiac differentiation | most suitable antioxidant for this phase | effect on cardiac differentiation, phase 4 medium (H9 hESC): essential for this d4+ phase |
| O=C1O[C@H]([C@@H](O)CO)C(O)=C1O [L-ascorbic acid] | either did not further enhance differentiation or had negative effects on differentiation | Neither transferrin, L-ascorbic acid, lipids or NEAA enhanced this phase of differentiation |  |
| NC(=O)CC[C@H](N)C(=O)O [L-glutamine] | either did not further enhance differentiation or had negative effects on differentiation | did not enhance cardiac differentiation |  |
| C[C@@H](N)[C@H]1CC[C@H](C(=O)Nc2ccncc2)CC1 [Y-27632, reference compound] | further improved reproducibility and cardiac differentiation |  |  |
| CC(C)NCC(O)c1ccc(O)c(O)c1 (stereo not drawn) [isoproterenol] |  |  | shortening of the mean APD (H9 hEB): 23 ± 8 ms; effect on action potential [1]: shortening of the action potential; action potential duration [1]: 262 ± 107 ms |
| CC(N/C(=N\C#N)Nc1ccncc1)C(C)(C)C (stereo not drawn) [pinacidil] |  |  | effect on action potential [1]: shortening of the action potential; action potential duration [1]: 257 ± 56 ms |
| FGF2: fibroblast growth factor 2 |  | did not further enhance this phase; also recorded: did not enhance cardiac differentiation |  |
| IGF1: growth factor titrated between 1-100 ng mL-1 | none were found to have the same potency as BMP4 |  |  |
| IGF2: growth factor titrated between 1-100 ng mL-1 | none were found to have the same potency as BMP4 |  |  |
| TGFB | none were found to have the same potency as BMP4 |  |  |
| WNT3A | none were found to have the same potency as BMP4 |  |  |
| insulin: recombinant human insulin (Sigma) |  | completely abrogated cardiac specification; also recorded: completely ablated cardiac differentiation | effect on cardiac differentiation, phase 4 medium (H9 hESC): did not effect this d4+ phase; effect on cardiac differentiation, xeno- and serum-free d2-d4 medium (H9 hESC; supplement in serum-free d2-d4 medium): inhibited cardiac differentiation |
